According to paper PMC4449328 (European neuropsychopharmacology : the journal of the …, 2014):

What was measured:
[1] = target: D3 dopamine receptor (Homo sapiens, UniProt P35462); test: β-arrestin recruitment assay; type: cell-based
[2] = target: T1, D3 receptor (Homo sapiens, UniProt P35462); test: [3H]methylspiperone saturation binding; conditions: 1 μM sulpiride (Fig. 6)
[3] = target: T1, D3 receptor; conditions: read-out: Ki±SEM; binding data previously reported; ref Newman et al. (2003); cited from earlier work

D3 dopamine receptor, sequence (P35462 whole entry): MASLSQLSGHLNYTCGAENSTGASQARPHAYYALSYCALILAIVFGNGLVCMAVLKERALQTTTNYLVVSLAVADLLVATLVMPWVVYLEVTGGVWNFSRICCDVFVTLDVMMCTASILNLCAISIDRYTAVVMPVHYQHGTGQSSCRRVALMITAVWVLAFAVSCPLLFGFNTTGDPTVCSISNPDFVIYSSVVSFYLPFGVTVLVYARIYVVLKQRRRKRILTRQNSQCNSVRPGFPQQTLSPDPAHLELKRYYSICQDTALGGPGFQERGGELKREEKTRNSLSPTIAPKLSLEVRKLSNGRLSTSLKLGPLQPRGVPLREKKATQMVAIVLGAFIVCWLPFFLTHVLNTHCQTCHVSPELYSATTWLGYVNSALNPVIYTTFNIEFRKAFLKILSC
T1 sequence (P35462 whole entry): as above

Hill slope of Schild plot ([1]; curve-shift of dopamine concentration response (Fig. 7), n=3–5, mean±SEM) | Hill slope of Schild plot ([1]; curve-shift of dopamine concentration response (Fig. 11)) | Bmax of [3H]methylspiperone in presence of compound [2] | SMILES | Ki [3] [nM]
1.04±0.05 | 1.04±0.05 | 6,190 fmol/mg | CCN1CCCC1CNC(=O)c1cc(S(N)(=O)=O)ccc1OC (stereo not shown) [sulpiride] | –
– | – | – | O=C(NCCCCN1CCN(c2cccc(Cl)c2Cl)CC1)c1ccc(-c2ccccn2)cc1 [CJB 090] | 0.6 ± 0.2
